The target in the assay is PI3Kδ (p110δ/p85α) (Homo sapiens (Human), UniProt O00329). Description: Example A3 PI3Kδ scintillation proximity assay. Format: biochemical. The settings on record: comparison of compounds 355-358; assay not given. As to the method:
PI3Kδ Scintillation Proximity Assay
[γ-^33P]ATP (10 mCi/mL) was purchased from PerkinElmer (Waltham, Mass.). […] PI3Kδ (p110δ/p85α) was purchased from Millipore (Bedford, Mass.). ATP, MgCl2, DTT, EDTA, MOPS and CHAPS were purchased from SigmaAldrich (St. Louis, Mo.). Wheat Germ Agglutinin (WGA) YSi SPA Scintillation Beads was purchased from GE healthcare life sciences (Piscataway, N.J.).
The final concentration of DMSO in the assay was 0.5%. The PI3K assays were carried out at room temperature in 20 mM MOPS, pH 6.7, 10 mM MgCl2, 5 mM DTT and CHAPS 0.03%. Reactions were initiated by the addition of ATP, the final reaction mixture consisted of 20 μM PIP2, 20 μM ATP, 0.2 μCi [γ-^33P]

PI3Kδ (p110δ/p85α), sequence (O00329 whole entry): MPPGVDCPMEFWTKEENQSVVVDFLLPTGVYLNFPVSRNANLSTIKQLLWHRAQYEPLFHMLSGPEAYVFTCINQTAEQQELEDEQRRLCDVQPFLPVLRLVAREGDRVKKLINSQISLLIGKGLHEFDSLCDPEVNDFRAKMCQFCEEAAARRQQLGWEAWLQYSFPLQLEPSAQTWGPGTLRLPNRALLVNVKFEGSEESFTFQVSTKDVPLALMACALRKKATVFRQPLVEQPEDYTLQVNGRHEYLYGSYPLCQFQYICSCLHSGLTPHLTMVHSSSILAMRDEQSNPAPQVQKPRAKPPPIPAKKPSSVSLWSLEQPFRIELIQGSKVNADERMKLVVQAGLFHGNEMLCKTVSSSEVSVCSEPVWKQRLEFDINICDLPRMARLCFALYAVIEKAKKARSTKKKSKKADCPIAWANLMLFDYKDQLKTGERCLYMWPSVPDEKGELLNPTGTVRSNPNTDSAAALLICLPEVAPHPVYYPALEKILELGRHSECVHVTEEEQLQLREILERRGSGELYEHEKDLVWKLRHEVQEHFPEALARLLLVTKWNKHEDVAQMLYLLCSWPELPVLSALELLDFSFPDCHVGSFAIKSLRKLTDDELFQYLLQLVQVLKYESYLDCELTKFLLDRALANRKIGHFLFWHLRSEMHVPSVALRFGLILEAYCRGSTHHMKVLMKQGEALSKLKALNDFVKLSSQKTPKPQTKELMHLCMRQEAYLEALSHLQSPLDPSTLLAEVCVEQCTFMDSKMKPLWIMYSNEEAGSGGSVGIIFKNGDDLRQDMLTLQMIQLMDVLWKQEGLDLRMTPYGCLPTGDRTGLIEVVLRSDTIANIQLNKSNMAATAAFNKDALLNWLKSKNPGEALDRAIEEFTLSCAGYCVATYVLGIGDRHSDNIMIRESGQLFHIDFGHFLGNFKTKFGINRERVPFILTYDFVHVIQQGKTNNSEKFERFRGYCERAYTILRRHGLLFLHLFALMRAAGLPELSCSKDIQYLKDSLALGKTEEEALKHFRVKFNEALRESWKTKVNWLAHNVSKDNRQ
PI3Kδ (p110δ/p85α), sequence (P27986 whole entry partner): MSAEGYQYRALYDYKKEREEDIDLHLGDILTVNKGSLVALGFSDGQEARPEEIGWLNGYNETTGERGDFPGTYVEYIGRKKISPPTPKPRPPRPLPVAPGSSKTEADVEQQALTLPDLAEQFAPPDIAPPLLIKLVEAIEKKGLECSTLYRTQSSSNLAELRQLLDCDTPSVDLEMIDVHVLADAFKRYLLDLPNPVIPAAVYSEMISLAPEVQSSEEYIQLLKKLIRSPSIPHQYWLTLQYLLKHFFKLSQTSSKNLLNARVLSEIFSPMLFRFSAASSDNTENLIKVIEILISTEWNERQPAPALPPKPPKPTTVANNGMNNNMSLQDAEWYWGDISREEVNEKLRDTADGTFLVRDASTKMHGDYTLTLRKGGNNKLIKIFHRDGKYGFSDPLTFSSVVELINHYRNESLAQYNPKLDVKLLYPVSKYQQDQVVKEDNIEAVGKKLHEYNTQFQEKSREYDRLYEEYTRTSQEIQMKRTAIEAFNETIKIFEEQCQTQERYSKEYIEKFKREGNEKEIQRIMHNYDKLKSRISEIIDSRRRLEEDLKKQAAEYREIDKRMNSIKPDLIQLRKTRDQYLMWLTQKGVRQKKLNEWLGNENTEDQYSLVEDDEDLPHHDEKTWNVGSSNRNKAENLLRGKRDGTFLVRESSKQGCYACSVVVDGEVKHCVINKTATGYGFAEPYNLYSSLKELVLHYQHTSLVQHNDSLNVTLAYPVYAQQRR

In the case of `CCOc1c(C(C)n2nc(C)c3c(N)ncnc32)cc(Cl)c(F)c1C1CNC(=O)O1` (single isomer, unassigned) [Example 357, 5-{3-[1-(4-amino-3-methyl-1H-pyrazolo[3,4-d]pyrimidin-1-yl)ethyl]-5-chloro-2-ethoxy-6-fluorophenyl}-1,3-oxazolidin-2-one], the “relative activity of the separated enantiomers (peaks 1-4)” value is reported as “most active enantiomer”.
